# Test results as given in patent publication US12433908B2, “Use of nicotinamide riboside, nicotinic acid riboside, and nicotinamide mononucleotide, reduced nicotinyl compounds, and nicotinoyl compound derivatives in infant formula for healthy development” (ChromaDex, Inc., priority 2016, dated 2025).
# “Also recorded” adds a separate entry of the source.
# Assays:
# [1] = Stability of NR in liquid (water, milk); assay type: physicochemical
# milk proteins = assay: WaterLOGSY NMR direct binding of 15N-labeled NR to milk proteins; conditions: increasing additions of milk
# Excerpt: Whey protein fraction and casein protein have been identified as leading candidates to bind directly to and stabilize nicotinamide riboside (NR, I) in milk. The addition of these proteins in particular (either alone or in combination with other proteins) in order to stabilize nicotinamide riboside (NR, I) in liquid constitutes another embodiment of a method of delivery of the present invention. […] In this experiment, Water-Ligand Observed via Gradient Spectroscopy (WaterLOGSY NMR) was used to detect direct binding of stable, isotope-labeled (^15N) nicotinamide riboside (NR, I) to milk proteins. This is visualized as a concentration-dependent shift in the nicotinamide riboside (NR, I) spectra with increasing additions of milk. The concentric shapes shifts from left to right are the results of addition of no milk, 150 mL of milk, and […] of milk, respectively.
# [2] = Fecal SCFA analysis by gas chromatography in piglets given NR solution; assay type: in vivo, piglets (Yorkshire/Hampshire crossbred)
# Excerpt: Sixteen (n=16) Yorkshire/Hampshire crossbred piglets were obtained from the University of California, Davis Swine Teaching and Research Center and received on lactation day (“LD”) 14. Prior to arrive, the piglets were processed by the suppler between 1-3 days of age by administration of iron and an antibiotic ([…] for swine) as is common practice at the University of California, Davis Swine Facility. It is not common practice at the University of California, Davis Swine Facility to give a second dose of iron and antibiotics unless it becomes necessary. The piglets were from two litters (litters 15 and 17), weaned at 17 days of age, and randomly placed into one of two groups balanced for litter, sex, and weight. The animals were not acclimated to the facility at arrival and were subsequently acclimated to the test diet administration system. The piglets were weaned into a temperature-controlled room (approximately 27-29° C.) that contained 10 adjacent pens. The piglets were group-housed in the nursery room at the Swine Facility, which is an enclosed room with access restricted to trained personnel. The two groups were separated by one pen containing piglets of similar age. Each morning enough nicotinamide riboside (NR, I) in water solution was prepared for that day's dose administration according to the dose preparation protocol. At least 5 mL of prepared dose was reserved and immediately frozen after preparation each day for analysis of nicotinamide riboside (NR, I) for the purpose of confirming stability of the dose material. The doses were stored at refrigeration temperature while not in use. Nicotinamide riboside (NR, I) was dosed once per day in the morning and at the same time each day. Piglets in the control group received the same volume of plain water and were dosed on the same schedule. Starting on Day 1, animals in the nicotinamide riboside (NR, I) group were dosed once daily (in the morning) with 277 mg nicotinamide riboside (NR, I) per pig resuspended in water for seven days. After one week, animals were dosed once daily with 342 mg nicotinamide riboside (NR, I) per pig delivered in 2.5 mL for seven days. For Days 1 and 2, the nicotinamide riboside (NR, I) solution was prepared by resuspending 2770 mg nicotinamide riboside (NR, I) in 50 mL water, and 5 mL of this solution was delivered to each pig by squirting it into the back of the mouth using a 10 mL syringe with a piece of tubing attached to the end. To reduce the volume to more efficiently deliver the nicotinamide riboside (NR, I) solution, the 2770 mg was resuspended in 25 mL water and 2.5 mL of the solution was squirted into the back of the mouth of each pig using a 3 mL syringe for Days 3-7. For Days 8-14, 3420 mg nicotinamide riboside (NR, I) was resuspended in 25 mL water and 2.5 mL of this solution was delivered to each pig. Each day prior to dosing, 2.5 mL of the nicotinamide riboside (NR, I) (5 mL on Days 1 and 2) were placed into a separate tube and frozen. Fresh fecal samples were collected from each pig on Days 1 (baseline), 8 (Wk 1), and 14 (Wk 2), and frozen. When a freshly voided sample could not be obtained, the rectum was swabbed. A total of 100 mg of feces from each pig was used for SCFA analysis using gas chromatography with known standards for acetic acid, propionic acid, isobutyric acid, butyric acid, isovaleric acid, and valeric acid. Samples were extracted with 25% metaphosphoric acid and each extraction run in triplicate on a GC equipped with the PeakSimple Chromatography Data System. Data was analyzed using a one-way ANoVA or the non-parametric Kruskal-Wallis test if the distribution of values was not Gaussian. A conservative analysis of the data is presented below (animals that had to be swabbed to get a fecal sample) in Table 3 and an analysis of the data including the swab samples is in Table 8. The trends are similar, the p-values are not.
# [3] = 1 week of daily administration of 277 mg of NR in water
# [4] = Wk 1, 277 mg/pig once daily oral
# [5] = including the swab samples, Baseline, before dosing
# [6] = including the swab samples, Wk 1, 277 mg/pig once daily oral
# [7] = including the swab samples, third column group, headed 'Wk 1' again
# [8] = without swab samples, Baseline, before dosing
# [9] = without swab samples, Wk 1, 277 mg/pig once daily oral
# [10] = without swab samples, third column group, headed 'Wk 1' again
compound,measurement,setting,value
"NC(=O)c1ccc[n+]([C@@H]2O[C@H](CO)[C@@H](O)[C@H]2O)c1 [NR, Nicotinamide riboside]",stability in milk,[1]; cow's milk and human breast milk,stable in milk
same,stability in water,[1]; in water,unstable over time
same,direct binding to milk proteins,milk proteins,binds to proteins in milk
same,Fecal SCFA levels,[2]; [3],increased
same,"fecal acetic acid (C2), propionic acid (C3), and butyric acid (C4)",[2]; [3],marked increases
same,"Fecal SCFA Acetic Acid, Δ vs. baseline (NR)",[2]; [4],15.1 ppm
same,"Fecal SCFA Butyric Acid, Δ vs. baseline (NR)",[2]; [4],26.3 ppm
same,"Fecal SCFA Isobutyric Acid, Δ vs. baseline (NR)",[2]; [4],−3.4 ppm
same,"Fecal SCFA Isovaleric Acid, Δ vs. baseline (NR)",[2]; [4],−4.3 ppm
same,"Fecal SCFA Propionic Acid, Δ vs. baseline (NR)",[2]; [4],35.9 ppm
same,"Fecal SCFA Valeric Acid, Δ vs. baseline (NR)",[2]; [4],5.4 ppm
same,"Fecal SCFA Acetic Acid, Significant change from baseline within group",[2]; Wk 1 vs. baseline,No
same,"Fecal SCFA Butyric Acid, Significant change from baseline within group",[2]; Wk 1 vs. baseline,"statistically significant; also recorded: Yes, P < 0.05"
same,"Fecal SCFA Isobutyric Acid, Significant change from baseline within group",[2]; Wk 1 vs. baseline,No
same,"Fecal SCFA Isovaleric Acid, Significant change from baseline within group",[2]; Wk 1 vs. baseline,No
same,"Fecal SCFA Propionic Acid, Significant change from baseline within group",[2]; Wk 1 vs. baseline,"statistically significant; also recorded: Yes, P < 0.05"
same,"Fecal SCFA Valeric Acid, Significant change from baseline within group",[2]; Wk 1 vs. baseline,No
same,Fecal SCFA Isobutyric Acid,[2]; including the swab samples,7.9 ± 10.9 ppm
same,Fecal SCFA Propionic Acid,[2]; including the swab samples,51.5 ± 45.7 ppm
same,Fecal SCFA Valeric Acid,[2]; including the swab samples,7.8 ± 11.3 ppm
same,Fecal SCFA Acetic Acid,[2]; [5],43.5 ± 23.5 ppm
same,Fecal SCFA Butyric Acid,[2]; [5],11.1 ± 18.4 ppm
same,Fecal SCFA Isobutyric Acid,[2]; [5],9.5 ± 9.3 ppm
same,Fecal SCFA Isovaleric Acid,[2]; [5],16.8 ± 14.0 ppm
same,Fecal SCFA Propionic Acid,[2]; [5],15.3 ± 10.6 ppm
same,Fecal SCFA Valeric Acid,[2]; [5],2.4 ± 6.9 ppm
same,Fecal SCFA Acetic Acid,[2]; [6],58.6 ± 14.5 ppm
same,Fecal SCFA Butyric Acid,[2]; [6],37.4 ± 16.8 ppm
same,Fecal SCFA Isobutyric Acid,[2]; [6],6.1 ± 6.4 ppm
same,Fecal SCFA Isovaleric Acid,[2]; [6],12.5 ± 9.1 ppm
same,Fecal SCFA Propionic Acid,[2]; [6],51.2 ± 13.2 ppm
same,Fecal SCFA Valeric Acid,[2]; [6],7.8 ± 6.6 ppm
same,Fecal SCFA Acetic Acid,[2]; [7],70.1 ± 62.6 ppm
same,Fecal SCFA Butyric Acid,[2]; [7],41.2 ± 34.6 ppm
same,Fecal SCFA Isovaleric Acid,[2]; [7],11.3 ± 15.7 ppm
same,Fecal SCFA Isobutyric Acid,[2]; without swab samples,15.9 ± 10.6 ppm
same,Fecal SCFA Propionic Acid,[2]; without swab samples,90.0 ± 30.4 ppm
same,Fecal SCFA Valeric Acid,[2]; without swab samples,15.7 ± 11.5 ppm
same,Fecal SCFA Acetic Acid,[2]; [8],43.5 ± 23.5 ppm
same,Fecal SCFA Butyric Acid,[2]; [8],11.1 ± 18.4 ppm
same,Fecal SCFA Isobutyric Acid,[2]; [8],9.5 ± 9.3 ppm
same,Fecal SCFA Isovaleric Acid,[2]; [8],16.8 ± 14.0 ppm
same,Fecal SCFA Propionic Acid,[2]; [8],15.3 ± 10.6 ppm
same,Fecal SCFA Valeric Acid,[2]; [8],2.4 ± 6.9 ppm
same,Fecal SCFA Acetic Acid,[2]; [9],55.78 ± 13.4 ppm
same,Fecal SCFA Butyric Acid,[2]; [9],36.9 ± 18.3 ppm
same,Fecal SCFA Isobutyric Acid,[2]; [9],5.8 ± 6.5 ppm
same,Fecal SCFA Isovaleric Acid,[2]; [9],11.9 ± 9.8 ppm
same,Fecal SCFA Propionic Acid,[2]; [9],49.3 ± 13.3 ppm
same,Fecal SCFA Valeric Acid,[2]; [9],6.7 ± 6.7 ppm
same,Fecal SCFA Acetic Acid,[2]; [10],118.7 ± 55.01 ppm
same,Fecal SCFA Butyric Acid,[2]; [10],70.8 ± 21.9 ppm
same,Fecal SCFA Isovaleric Acid,[2]; [10],22.5 ± 15.5 ppm
